Experimental findings from patent US4463003A, “Cephem compounds” (Fujisawa Pharmaceutical Co., Ltd., priority 1982, dated 1984) are described below.

For one data set, the system named is Proteus mirabilis 18. Nature of the data set: Minimal inhibitory concentrations, two-fold agar-plate dilution method. In kind it is cell-based. The note with it: HI-agar, 37° C., 20 hours. Here is the method: (§1) (A) Minimal inhibitory concentrations In vitro antibacterial activity was determined by the two-fold agar-plate dilution method as described below. One loopful of an overnight culture of each test strain in Trypticase-soy broth (10^8 viable cells per ml) was streaked on heart infusion agar (HI-agar) containing graded concentrations of representative test compound, and the minimal inhibitory concentration (MIC) was expressed in terms of μg/ml after incubation at 37° C. for 20 hours.

The next data set deals with Proteus vulgaris 2. The description is as above. Conditions: HI-agar, 37° C., 20 hours. In kind it is cell-based. Here is the method:
as §1

The nature of data set [1]: Urinary excretion after oral administration in rats. In kind it is in vivo. Conditions: rat, urine, 100 mg/kg, 0 to 24 hours, bioassay, read-out: Urinary recovery in 24 hours (%).
Protocol: Urine of rats was collected with a urine collector at 0 to 6, and 6 to 24 hours after oral administration of 100 mg/kg of the test antibiotic. The antibiotic levels in the urine samples were bioassayed with the standard solution prepared with M/15 phosphate buffer (pH 7.0) and the urinary recovery in 24 hours was calculated.
The nature of the next data set: in vivo. Conditions: rat, po, 100 mg/kg.

Values after ≈ are worked out from the molar mass of the structure shown.

Broadly, the MIC is the least concentration at which growth counts as inhibited. A higher MIC goes with a need for much substance.

Protocol for in vivo: Rats anesthetized with pentobarbital were fixed in supine position, and a polyethylene cannula was inserted into the bile duct. Bile samples were collected at 0 to 3, 3 to 6, and 6 to 24 hours after oral administration of 100 mg/kg of the test antibiotic. The antibiotic levels in the bile samples were bioassayed with the standard solution prepared with M/15 phosphate buffer (pH 7.0) and the biliary recovery in 24 hours were calculated.

For the compound `O=C(O)CO/N=C(\C(=O)NC1C(=O)N2C(C(=O)O)=C(CSc3ccc4nnnn4n3)CSC12)c1ncsn1` (stereo not drawn) [Compound .circle.A, 7-[2-Carboxymethoxyimino-2-(1,2,4-thiadiazol-3-yl)acetamido]-3-(tetrazolo[1,5-b]pyridazin-6-yl)thiomethyl-3-cephem-4-carboxylic acid (syn isomer)], the MIC in the data set with Proteus mirabilis 18 and in the data set on Proteus vulgaris 2 was 0.05 µg/mL (≈ 0.0864 µM) in each case. Moreover, the dose excreted at 24 h turned out to be 10.6% in data set [1] and 12.6% in “in vivo”.
